Source: patent US6596718B1, “7-Morpholin-4yl-benzothiazole amide derivatives” (Hoffmann-La Roche Inc., priority 2001, dated 2003)

Experiments:
[1] = target: T1, human adenosine A1 receptor (Homo sapiens, UniProt P30542); experiment: [3H]-DPCPX binding assay, human adenosine A1 receptor (SPA, CHO cell membranes); details: recombinant human A1 in CHO membranes; [3H]-DPCPX 0.6 nM; Ki by Cheng-Prussoff; read-out: hA1 (pKi) (converted)
T1 construct: expressed in transfected cells; host or cells: CHO cells, Semliki Forest virus expression system; membrane preparation
T1 sequence (P30542 1-326): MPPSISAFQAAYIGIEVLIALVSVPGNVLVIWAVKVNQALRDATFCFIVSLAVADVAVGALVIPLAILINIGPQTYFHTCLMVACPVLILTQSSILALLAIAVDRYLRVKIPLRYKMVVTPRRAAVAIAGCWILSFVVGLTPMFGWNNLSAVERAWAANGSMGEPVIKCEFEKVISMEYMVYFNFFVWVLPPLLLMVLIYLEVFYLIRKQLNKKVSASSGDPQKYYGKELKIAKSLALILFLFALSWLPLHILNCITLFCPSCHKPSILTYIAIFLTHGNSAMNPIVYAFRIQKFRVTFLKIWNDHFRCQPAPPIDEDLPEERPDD
Experimental: Human Adenosine A1 Receptor
(§1) The human adenosine A1 receptor was recombinantly expressed in chinese hamster ovary (CHO) cells using the semlilki forest virus expression system. Cells were harvested, washed twice by centrifugation, homogenized and again washed by centrifugation. The final washed membrane pellet was suspended in a Tris (50 mM) buffer containing 120 mM NaCl, 5 mM KCl, 2 mM CaCl2 and 10 mM MgCl2 (pH 7.4) (buffer A). The [^3H]-DPCPX (([propyl-^3H]8-cyclopentyl-1,3-dipropyxanthine); 0.6 nM) binding assay was carried out in 96-well plates in the presence of 2.5 μg of membrane protein, 0.5 mg of Ysi-poly-l-lysine SPA beads and 0.1 U adenosine deaminase in a final volume of 200 μl of buffer A. Non-specific binding was defined using xanthine amine congener (XAC; 2 μM). Compounds were tested at 10 concentrations from 10 μM-0.3 nM. All assays were conducted in duplicate and repeated at least two times. Assay plates were incubated for 1 hour at room temperature before centrifugation and then bound ligand determined using a Packard Topcount scintillation counter. IC50, the concentration where 50% of the […] binding is displaced, values were calculated using a non-linear curve fitting program and ki values calculated using the Cheng-Prussoff equation.

[2] = target: T2, human adenosine A2A receptor (Homo sapiens, UniProt P29274); experiment: [3H]-SCH-58261 binding assay, human adenosine A2A receptor (SPA, CHO cell membranes); details: recombinant human A2A in CHO membranes; [3H]-SCH-58261 1 nM; Ki by Cheng-Prussoff; read-out: hA2 (pKi) (converted)
T2 construct: expressed in transfected cells; host or cells: CHO cells, Semliki Forest virus expression system; membrane preparation
T2 sequence (P29274 whole entry): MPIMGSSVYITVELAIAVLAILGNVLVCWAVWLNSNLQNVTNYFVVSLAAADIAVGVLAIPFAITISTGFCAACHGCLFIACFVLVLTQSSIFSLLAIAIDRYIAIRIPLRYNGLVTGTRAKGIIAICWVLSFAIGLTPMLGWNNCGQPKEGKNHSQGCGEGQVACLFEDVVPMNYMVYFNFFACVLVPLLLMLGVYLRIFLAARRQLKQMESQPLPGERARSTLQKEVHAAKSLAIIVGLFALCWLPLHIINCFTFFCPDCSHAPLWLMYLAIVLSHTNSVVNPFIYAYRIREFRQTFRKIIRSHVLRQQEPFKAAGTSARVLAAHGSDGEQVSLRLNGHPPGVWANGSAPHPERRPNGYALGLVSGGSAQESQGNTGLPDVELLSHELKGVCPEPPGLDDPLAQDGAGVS
Experimental: Human Adenosine A2A Receptor
as §1, with “adenosine A2A” for “adenosine A1”, “(buffer A)” for “(buffer A).”, “The [^3H]-SCH-58261 (Dionisotti et al., 1997, Br J Pharmacol 121, 353; 1” for “The [^3H]-DPCPX (([propyl-^3H]8-cyclopentyl-1,3-dipropyxanthine); 0.6”, “counter. IC50 values,” for “counter. IC50,”, “displaced,” for “displaced, values”, “and Ki” for “and ki”

| SMILES | Ki [1] | melting point | Ki [2] |
| --- | --- | --- | --- |
| COc1ccc(N2CCOCC2)c2sc(C(=O)Nc3cccnc3)nc12 [Example 9, 4-Methoxy-7-morpholin-4-yl-benzothiazole-2-carboxylic acid pyridin-3-ylamide] | 3980 nM | 220 to 221 °C | 15.8 nM |
| COc1ccc(N2CCOCC2)c2sc(C(N)=O)nc12 [Example 1, 4-Methoxy-7-morpholin-4-yl-benzothiazole-2-carboxylic Acid Amide] | 3980 nM | 228 to 230 °C | 25.1 nM |
| COc1ccc(N2CCOCC2)c2sc(C(=O)NCc3ccccn3)nc12 [Example 13, 4-Methoxy-7-morpholin-4-yl-benzothiazole-2-carboxylic acid (pyridin-2-ylmethyl)-amide] | 6310 nM | 181 to 182 °C |  |
| COc1ccc(N2CCOCC2)c2sc(C(=O)NC(C)c3nc(C)cs3)nc12 (centres unmarked) [Example 77, 4-Methoxy-7-morpholin-4-yl-benzothiazole-2-carboxylic acid [1-(4-methyl-thiazol-2-yl)-ethyl]-amide] | 501 nM | 175 to 176 °C | 5.01 nM |
| COc1ccc(N2CCOCC2)c2sc(C(=O)NCC(=O)c3sccc3Cl)nc12 [Example 73, 4-Methoxy-7-morpholin-4-yl-benzothiazole-2-carboxylic acid [2-(3-chloro-thiophen-2-yl)-2-oxo-ethyl]-amide] | 1580 nM | 125 to 127 °C |  |
| COc1ccc(N2CCOCC2)c2sc(C(=O)NC3CCCC3)nc12 [Example 8, 4-Methoxy-7-morpholin-4-yl-benzothiazole-2-carboxylic acid cyclopentylamide] |  | 174 to 175 °C |  |
| COc1ccc(N2CCOCC2)c2sc(C(=O)NNC(=O)c3ccccn3)nc12 [Example 52, Pyridine-2-carboxylic acid N′-(4-methoxy-7-morpholin-4-yl-benzothiazole-2-carbonyl)-hydrazide] |  | 225 to 226 °C |  |
| COc1cccc(NC(=O)c2nc3c(OC)ccc(N4CCOCC4)c3s2)c1 [Example 11, 4-Methoxy-7-morpholin-4-yl-benzothiazole-2-carboxylic acid (3-methoxy-phenyl)-amide] |  | 160 °C |  |
| COc1ccc(N2CCOCC2)c2sc(C(=O)NCCCN3C(=O)c4ccccc4C3=O)nc12 [Example 32, 4-Methoxy-7-morpholin-4-yl-benzothiazole-2-carboxylic acid [3-(1,3-dioxo-1,3-dihydro-isoindol-2-yl)-propyl]-amide] |  | 200 to 202 °C |  |
| COc1ccc(N2CCOCC2)c2sc(C(=O)NCC3CC3)nc12 [Example 24, 4-Methoxy-7-morpholin-4-yl-benzothiazole-2-carboxylic acid cyclopropylmethyl-amide] |  | 152 to 153 °C |  |
| COc1ccc(N2CCOCC2)c2sc(C(=O)NC(c3ccccc3)c3ccccn3)nc12 (centres unmarked) [Example 67, 4-Methoxy-7-morpholin-4-yl-benzothiazole-2-carboxylic acid (phenyl-pyridin-2-yl-methyl)-amide] |  | 219 to 221 °C |  |
| COc1ccc(N2CCOCC2)c2sc(C(=O)NCC3CCCCC3)nc12 [Example 35, 4-Methoxy-7-morpholin-4-yl-benzothiazole-2-carboxylic acid cyclohexylmethyl-amide] |  | 150 to 151 °C |  |

Next, values leading:

| Ki [1] | melting point | Ki [2] | SMILES |
| --- | --- | --- | --- |
| 6310 nM | 150 to 153 °C |  | COc1ccc(N2CCOCC2)c2sc(C(=O)NCCc3ccc(F)cc3)nc12 [Example 59, 4-Methoxy-7-morpholin-4-yl-benzothiazole-2-carboxylic acid [2-(4-fluoro-phenyl)-ethyl]-amide] |
| 1580 nM | 120 to 122 °C | 20 nM | COc1ccc(N2CCOCC2)c2sc(C(=O)NCCc3cccc(F)c3)nc12 [Example 57, 4-Methoxy-7-morpholin-4-yl-benzothiazole-2-carboxylic acid [2-(3-fluoro-phenyl)-ethyl]-amide] |
| 2000 nM | 153 to 154 °C |  | COc1ccc(N2CCOCC2)c2sc(C(=O)NCCc3ccc(Cl)cc3)nc12 [Example 62, 4-Methoxy-7-morpholin-4-yl-benzothiazole-2-carboxylic acid [2-(4-chloro-phenyl)-ethyl]-amide] |
| 1260 nM | 119 to 121 °C | 25.1 nM | COc1ccc(N2CCOCC2)c2sc(C(=O)NCCc3cccc(C)c3)nc12 [Example 71, 4-Methoxy-7-morpholin-4-yl-benzothiazole-2-carboxylic acid (2-m-tolyl-ethyl)-amide] |
| 1260 nM | 120 to 121 °C | 3.98 nM | COc1ccc(N2CCOCC2)c2sc(C(=O)NCCc3cccs3)nc12 [Example 22, 4-Methoxy-7-morpholin-4-yl-benzothiazole-2-carboxylic acid (2-thiophen-2-yl-ethyl)-amide] |
| 7940 nM | 186 to 188 °C | 25.1 nM | COc1ccccc1CNC(=O)c1nc2c(OC)ccc(N3CCOCC3)c2s1 [Example 25, 4-Methoxy-7-morpholin-4-yl-benzothiazole-2-carboxylic acid 2-methoxy-benzylamide] |
| 1580 nM | 158 to 160 °C |  | COc1ccccc1CCNC(=O)c1nc2c(OC)ccc(N3CCOCC3)c2s1 [Example 49, 4-Methoxy-7-morpholin-4-yl-benzothiazole-2-carboxylic acid [2-(2-methoxy-phenyl)-ethyl]-amide] |
| 1260 nM | 50 to 51 °C | 20 nM | COc1ccc(N2CCOCC2)c2sc(C(=O)NCCc3ccccc3)nc12 [Example 6, 4-Methoxy-7-morpholin-4-yl benzothiazole-2-carboxylic acid phenethyl-amide] |
| 2510 nM | 148 to 150 °C | 20 nM | COc1ccc(N2CCOCC2)c2sc(C(=O)NCc3cccc(Cl)c3)nc12 [Example 15, 4-Methoxy-7-morpholin-4-yl-benzothiazole-2-carboxylic acid 3-chloro-benzylamide] |
| 3980 nM | 114 to 116 °C |  | COc1ccc(N2CCOCC2)c2sc(C(=O)NCc3ccccc3Cl)nc12 [Example 16, 4-Methoxy-7-morpholin-4-yl-benzothiazole-2-carboxylic acid 2-chloro-benzylamide] |
| 6310 nM | 160 to 163 °C | 25.1 nM | COc1ccc(N2CCOCC2)c2sc(C(=O)NCCc3cccnc3)nc12 [Example 55, 4-Methoxy-7-morpholin-4-yl-benzothiazole-2-carboxylic acid (2-pyridin-3-yl-ethyl)-amide] |
| 1000 nM | 141 to 143 °C | 20 nM | COc1ccc(N2CCOCC2)c2sc(C(=O)NCCc3ccccc3Cl)nc12 [Example 63, 4-Methoxy-7-morpholin-4-yl-benzothiazole-2-carboxylic acid [2-(2-chloro-phenyl)-ethyl]-amide] |
| 1260 nM | 99 to 101 °C | 25.1 nM | COc1cccc(CCNC(=O)c2nc3c(OC)ccc(N4CCOCC4)c3s2)c1 [Example 64, 4-Methoxy-7-morpholin-4-yl-benzothiazole-2-carboxylic acid [2-(3-methoxy-phenyl)-ethyl] amide] |
| 501 nM | 109 to 111 °C | 25.1 nM | COc1ccc(N2CCOCC2)c2sc(C(=O)NCCc3cccc(Cl)c3)nc12 [Example 65, 4-Methoxy-7-morpholin-4-yl-benzothiazole-2-carboxylic acid [2-(3-chloro-phenyl)-ethyl]-amide] |
|  | 156 to 158 °C |  | COc1ccc(N2CCOCC2)c2sc(C(=O)NCc3ccccc3)nc12 [Example 3, 4-Methoxy-7-morpholin-4-yl-benzothiazole-2-carboxylic Acid Benzylamide] |
